Data on one molecule can be found in ChEMBL document CHEMBL3351964, “2-Aminopyrimidin-4(1H)-one as the novel bioisostere of urea: discovery of novel and potent CXCR2 antagonists” (Bioorg Med Chem Lett, 2014).

Usually solubility stands for how much of the substance goes into solution per volume. High values mean a readily soluble substance, low ones a poorly soluble substance.

Common to all, as to format: ADME
Series [1] can be described thus: Stability of the compound in simulated gastric fluid after 24 hrs at 37 degC. The note with it: simulated gi fluid.
A short description of series [2]: Solubility of the compound in fasted simulated intestinal fluid after 4 hrs.
Series [3] in a line: Passive permeability of the compound by PAMPA assay. The following applies: read-out: permeability. (PAMPA measures passive passage across an artificial lipid membrane.)

Molecules are shown by their SMILES. Converted amounts (≈) assume the structure as drawn.

Regarding `CC(C)S(=O)(=O)c1c(Cl)ccc(Nc2nc(=O)cc(C(C)(C)C)[nH]2)c1O`, in series [1], the Stability entry is given as “Stable”. The solubility at 4 h in series [2] was 33 µg/mL (≈ 82.5 µM). In addition, the Papp in series [3] turned out to be 37 ×10⁻⁶ cm/s.
